How the values were obtained:
[1] = target: GST-RBD (AA 1–149) of c-RAF (Homo sapiens, UniProt P04049); test: Differential scanning fluorimetry; format: binding; conditions: DSF
[2] = target: kinase domain (KD) of c-RAF (AA 306–648) (Homo sapiens, UniProt P04049); test: Differential scanning fluorimetry; format: binding; conditions: DSF
[3] = tested on: GTP-RAS in HeLa and A431 cell lines; test: Active RAS pull-down after EGF stimulation, wild-type RAS cells; format: cell-based; conditions: serum-starved HeLa and A431 cells, 2 μM
[4] = tested on: c-RAF kinase activity in HeLa and A431 cells; test: RAF kinase activity of c-RAF immunoprecipitates from EGF-stimulated cells; format: cell-based; conditions: pre-treatment of cells; MEK substrate
c-RAF/B-RAF heterodimer = c-RAF/B-RAF heterodimer (Homo sapiens, UniProt P04049+P15056); test: c-RAF/B-RAF co-immunoprecipitation after EGF stimulation; format: cell-based; conditions: EGF-stimulated HeLa and A431 cells
Sequence of c-RAF/B-RAF heterodimer (P04049 whole entry): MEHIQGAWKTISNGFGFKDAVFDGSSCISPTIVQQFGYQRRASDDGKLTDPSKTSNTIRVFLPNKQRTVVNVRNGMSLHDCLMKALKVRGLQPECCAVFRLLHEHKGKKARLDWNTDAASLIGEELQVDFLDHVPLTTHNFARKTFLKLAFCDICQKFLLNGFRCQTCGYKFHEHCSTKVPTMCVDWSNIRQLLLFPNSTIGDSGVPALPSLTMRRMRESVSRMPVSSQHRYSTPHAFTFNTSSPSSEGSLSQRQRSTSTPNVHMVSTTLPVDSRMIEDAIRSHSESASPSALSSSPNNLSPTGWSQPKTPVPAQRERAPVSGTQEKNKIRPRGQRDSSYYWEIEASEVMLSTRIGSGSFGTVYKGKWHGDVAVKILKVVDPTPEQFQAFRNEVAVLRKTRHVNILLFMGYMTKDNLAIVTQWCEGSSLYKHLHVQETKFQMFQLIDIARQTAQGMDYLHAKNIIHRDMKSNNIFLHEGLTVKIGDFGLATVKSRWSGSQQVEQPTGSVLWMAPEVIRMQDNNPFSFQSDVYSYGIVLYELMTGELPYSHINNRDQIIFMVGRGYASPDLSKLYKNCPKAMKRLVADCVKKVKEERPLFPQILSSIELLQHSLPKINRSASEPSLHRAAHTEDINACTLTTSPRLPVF
Sequence of c-RAF/B-RAF heterodimer (P15056 whole entry): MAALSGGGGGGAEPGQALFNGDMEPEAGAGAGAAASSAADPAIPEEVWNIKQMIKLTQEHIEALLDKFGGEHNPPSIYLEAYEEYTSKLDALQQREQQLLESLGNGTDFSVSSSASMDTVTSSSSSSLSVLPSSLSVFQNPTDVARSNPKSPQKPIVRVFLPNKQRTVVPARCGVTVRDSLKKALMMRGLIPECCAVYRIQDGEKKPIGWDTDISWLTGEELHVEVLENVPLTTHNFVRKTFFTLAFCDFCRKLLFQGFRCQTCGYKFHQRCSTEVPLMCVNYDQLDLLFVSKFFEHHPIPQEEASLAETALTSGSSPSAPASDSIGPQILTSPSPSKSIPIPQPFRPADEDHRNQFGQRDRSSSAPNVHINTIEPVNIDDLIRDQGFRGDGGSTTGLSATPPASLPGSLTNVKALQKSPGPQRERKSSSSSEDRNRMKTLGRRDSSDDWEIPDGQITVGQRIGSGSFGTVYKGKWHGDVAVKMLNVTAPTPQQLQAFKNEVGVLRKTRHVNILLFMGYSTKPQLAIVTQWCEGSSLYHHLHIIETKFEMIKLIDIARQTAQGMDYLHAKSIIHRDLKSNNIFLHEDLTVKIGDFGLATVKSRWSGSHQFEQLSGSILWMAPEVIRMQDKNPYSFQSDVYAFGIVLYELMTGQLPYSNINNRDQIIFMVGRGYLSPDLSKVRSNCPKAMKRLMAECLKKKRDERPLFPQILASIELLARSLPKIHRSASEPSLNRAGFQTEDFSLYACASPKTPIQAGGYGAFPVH

[5] = tested on: MEK and ERK phosphorylation in HeLa and A431 cells; test: MEK and ERK phosphorylation western blot, HeLa and A431 cells; format: cell-based
[6] = tested on: c-RAF^Ser338 phosphorylation; test: EGF-induced c-RAF^Ser338 phosphorylation in HCT116 cells; format: cell-based, human; conditions: serum-starved HCT116, EGF 5 min
mutant c-RAF RBDs = test: MST binding to mutant c-RAF RBDs; conditions: V69A
recombinant Ral-GDS RBD = recombinant Ral-GDS RBD (Homo sapiens, UniProt Q12967); test: DSF and biotin-RGS pull-down, Ral-GDS RBD; format: binding; conditions: DSF and pull-down with biotin-RGS conjugate
Sequence of recombinant Ral-GDS RBD (Q12967 798-885 limits assumed): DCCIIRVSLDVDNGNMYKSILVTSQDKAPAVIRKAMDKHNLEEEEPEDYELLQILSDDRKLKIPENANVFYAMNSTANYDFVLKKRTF

[7] = target: GTP-RAS and CRAF-RBD interaction (Homo sapiens, UniProt P04049); test: In vitro association of GST-RBD with GTP-RAS from EGF-stimulated A431 lysates; format: biochemical; conditions: GST-RBD pre-incubated with increasing concentrations
Sequence of GTP-RAS and CRAF-RBD interaction (P04049 56-131 limits assumed): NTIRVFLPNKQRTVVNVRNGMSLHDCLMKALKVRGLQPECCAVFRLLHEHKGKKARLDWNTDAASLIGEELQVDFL

[8] = tested on: HA-tagged mutant N-RAS G12D GTP-RAS in HeLa cells; test: Active RAS pull-down, HeLa cells expressing mutant N-RAS G12D; format: cell-based; conditions: pre-incubation
three RAF proteins = test: In vitro RAF kinase assays; format: biochemical
[9] = tested on: MEK and ERK activation in N-RAS (G12D)-expressing HeLa, HCT-116 and A549 cells; test: MEK and ERK activation western blot, mutant RAS cells; format: cell-based
[10] = tested on: c-RAF^Ser338 phosphorylation; test: c-RAF^Ser338 phosphorylation in synchronized HCT116 cells entering mitosis; format: cell-based, human; conditions: HCT116, released from double thymidine block
[11] = target: PLK1 association with c-RAF^Ser338 (Homo sapiens, UniProt P04049); test: PLK1 immunoprecipitation, associated c-RAF^Ser338 in HCT116 cells; format: cell-based; conditions: HCT116, anti-PLK1 immunoprecipitation
Sequence of PLK1 association with c-RAF^Ser338 (P04049 whole entry): as the sequence (P04049 whole entry) above

[12] = tested on: c-RAF^Ser338, MEK, ERK, and AKT phosphorylation; test: Western blot of xenograft tumor extracts; format: in vivo, mouse; conditions: tumor extracts vs placebo
[13] = tested on: PanIN lesions (K-RAS^G12D); test: Pdx-cre:Kras^+/LSL G12D mouse model of pancreatic intraepithelial neoplasia; format: in vivo; conditions: 14 days
PLK1 = conditions: subsequent experiments by us and others; ref Steegmaier et al., 2007; cited from earlier work
[14] = tested on: MDS patients with monosomy 7 and trisomy 8; conditions: phase III, MDS with monosomy 7 and trisomy 8; ref Garcia-Manero et al., 2016; cited from earlier work
[15] = tested on: A549 (K-RAS^G12S) xenograft; test: A549 xenograft tumor growth; conditions: 100 mg/kg twice daily i.p., 16 days, nude mice
[16] = tested on: HCT116 (K-RAS^G13D) xenograft; test: HCT116 xenograft tumor growth; conditions: 100 mg/kg twice daily i.p., 16 days, nude mice
[17] = target: GST-tagged c-RAF RBD (aa 1–149) (Homo sapiens, UniProt P04049); test: Microscale thermophoresis
Sequence of GST-tagged c-RAF RBD (aa 1–149) (P04049 1-149): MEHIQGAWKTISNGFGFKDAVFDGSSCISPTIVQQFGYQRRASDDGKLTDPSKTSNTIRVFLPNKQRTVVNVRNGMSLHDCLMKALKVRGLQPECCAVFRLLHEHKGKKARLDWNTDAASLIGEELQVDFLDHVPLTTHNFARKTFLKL

[18] = target: GST-tagged B-RAF RBD (aa 151–230) (Homo sapiens, UniProt P15056); test: Microscale thermophoresis
Sequence of GST-tagged B-RAF RBD (aa 151–230) (P15056 151-230): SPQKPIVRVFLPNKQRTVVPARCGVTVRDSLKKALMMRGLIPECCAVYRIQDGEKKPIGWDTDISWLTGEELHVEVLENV

Sequence of GST-RBD (AA 1–149) of c-RAF (P04049 1-149): as the sequence (P04049 1-149) above
Sequence of kinase domain (KD) of c-RAF (AA 306–648) (P04049 306-648): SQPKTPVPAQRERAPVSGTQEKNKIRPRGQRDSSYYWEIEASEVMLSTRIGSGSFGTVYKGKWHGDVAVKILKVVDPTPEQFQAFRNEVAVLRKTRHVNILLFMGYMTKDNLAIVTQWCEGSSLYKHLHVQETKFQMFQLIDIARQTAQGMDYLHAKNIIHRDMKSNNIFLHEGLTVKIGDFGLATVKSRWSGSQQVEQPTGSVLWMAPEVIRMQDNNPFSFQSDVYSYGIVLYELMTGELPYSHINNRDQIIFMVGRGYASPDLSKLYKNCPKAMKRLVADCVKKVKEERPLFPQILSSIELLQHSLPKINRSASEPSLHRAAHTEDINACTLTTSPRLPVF

**Q.** For `CCCS(=O)(=O)Nc1ccc(F)c(C(=O)c2c[nH]c3ncc(-c4ccc(Cl)cc4)cc23)c1F` [PLX4032, vemurafenib, reference compound], which “interaction with c-RAF RBD (change in Tm)” value [1] is on record?
**A.** not with the RBD

**Q.** What about the “interaction with c-RAF kinase domain (thermal shift)” value [2] of the same compound?
**A.** strong thermal shift

**Q.** And the “GTP-RAS pulled down by GST-RBD after EGF stimulation” value [3]?
**A.** GTP-RAS could readily be pulled down

**Q.** What about the “EGF-induced activation of RAF kinase activity” value [4] of the same compound?
**A.** enhancement

**Q.** And the c-RAF/B-RAF heterodimer formation (c-RAF/B-RAF heterodimer)?
**A.** enhanced the association

**Q.** And the “phosphorylation status of MEK and ERK” value [5]?
**A.** a small increase or no change

**Q.** And the “EGF-induced c-RAF^Ser338 phosphorylation” value [6]?
**A.** little or no effect

**Q.** With `COc1cc(OC)c(/C=C/S(=O)(=O)Cc2ccc(OC)c(NCC(=O)O)c2)c(OC)c1` [RGS, rigosertib] as the compound, how does the “binding affinity to c-RAF RBD mutants with reduced RAS binding” value (mutant c-RAF RBDs; mutants K65A, V70A, and V88A, increased Kd values in MST) read?
**A.** reduced binding affinities

**Q.** And the “binding to c-RAF RBD mutants that abolished RAS binding” value (mutant c-RAF RBDs; mutations T57A, R67A, L62A, V69G, and T68A)?
**A.** disrupted binding

**Q.** And the “interaction with c-RAF RBD (change in Tm)” value [1]?
**A.** bound to RGS

**Q.** What about the “interaction with c-RAF kinase domain (thermal shift)” value [2] of the same compound?
**A.** did not interact

**Q.** What about the “binding to Ral-GDS RBD” value (recombinant Ral-GDS RBD) of the same compound?
**A.** binds to recombinant Ral-GDS RBD, in a concentration-dependent manner

**Q.** And the “association of GST-RBD with activated RAS” value [7]?
**A.** inhibition of its association with activated RAS in a concentration-dependent manner

**Q.** And the “GTP-RAS pulled down by GST-RBD after EGF stimulation” value [3]?
**A.** very little or no GTP-RAS could be precipitated

**Q.** What about the “levels of mutant GTP-RAS bound to GST-RBD” value [8] of the same compound?
**A.** no effect on the levels of GTP-RAS

**Q.** And the “EGF-induced activation of RAF kinase activity” value [4]?
**A.** inhibits EGF-induced activation of RAF kinase activity

**Q.** And the “kinase activity of the three RAF proteins in in vitro assays” value (three RAF proteins)?
**A.** does not inhibit

**Q.** What about the c-RAF/B-RAF heterodimer formation (c-RAF/B-RAF heterodimer) of the same compound?
**A.** nearly complete inhibition

**Q.** What about the “phosphorylation status of MEK and ERK” value [5] of the same compound?
**A.** reduction in MEK and ERK phosphorylation

**Q.** And the “MEK and ERK activation” value [9]?
**A.** inhibits MEK and ERK activation equally well

**Q.** What about the “EGF-induced c-RAF^Ser338 phosphorylation” value [6] of the same compound?
**A.** completely inhibited

**Q.** What about the “reduction of c-RAF^Ser338 phosphorylation” value [10] of the same compound?
**A.** 90%

**Q.** And the “association of PLK1 with c-RAF^Ser338” value [11]?
**A.** little or no association

**Q.** And the “c-RAF^Ser338, MEK, ERK, and AKT phosphorylation in tumors” value [12]?
**A.** dramatically reduced

**Q.** And the “decrease in number of PanIN 1B, 2, and 3 grade tumors” value ([13]; 200 mg/kg twice daily i.p.)?
**A.** statistically significant

**Q.** What about the “number of pancreatic lesions, less than placebo-treated group” value ([13]; 200 mg/kg twice daily i.p.) of the same compound?
**A.** ~ 3 fold

**Q.** What about the “cleaved caspase-3-positive cells in PanIN lesions, greater than control” value ([13]; 200 mg/kg twice daily) of the same compound?
**A.** ~4 fold

**Q.** And the “phosphorylated ERK and AKT^Ser473 in PanINs” value ([13]; immunohistochemistry, 200 mg/kg twice daily)?
**A.** markedly decreased levels

**Q.** And the PLK1 kinase activity (PLK1)?
**A.** does not directly inhibit

**Q.** And the “hazard ratio for survival” value [14]?
**A.** 0.25–0.30

**Q.** What about the tumor growth [15] of the same compound?
**A.** dramatically decreased tumor growth

**Q.** What about the tumor growth [16] of the same compound?
**A.** dramatically decreased tumor growth

**Q.** What about the Kd [17] of the same compound?
**A.** 0.18 nM

**Q.** What about the Kd [18] of the same compound?
**A.** 0.71 nM

**Q.** With `COC(=O)Nc1nc2ccc(C(=O)c3cccs3)cc2[nH]1` [nocadazole, nocodazole, reference compound] as the compound, how does the “association of PLK1 with c-RAF^Ser338” value [11] read?
**A.** strong association

Source: article PMC5006944 (Cell, 2016)
